Data: paper PMC10533412, “Phosphoantigens glue butyrophilin 3A1 and 2A1 to activate Vγ9Vδ2 T cells” (Nature, 2023)
Several values for one entry are separate records, joined by “and”; a condition that tells them apart may be missing. Equal values may be shown once.

Legend:
VpBTN2 BFI–VpBTN3 BFI = assay: ITC: VpBTN2 BFI binding to VpBTN3 BFI in the presence of pAg; set-up: species or system alpaca (Vicugna pacos)
Method: ITC binding fits were calculated using MicroCal Analysis software.
ITC experiments of HMBPP, DMAPP or IPP binding to the VpBTN3 BFI (or the preconditioned VpBTN3 BFI and VpBTN2 BFI complex) and VpBTN2 BFI (or VpBTN1 BFI) binding to VpBTN3 BFI in the presence of HMBPP, DMAPP or IPP were performed according to the same procedures as for the BTN3A1 B30.2 and BTN2A1 B30.2.

MIA PaCa-2 cells = assay: AFM-SCFS binding force between a Vγ9Vδ2 T cell and a MIA PaCa-2 cell; format: cell-based, human; set-up: binding force, Mean, Fig. 6b / binding force, Median, Fig. 6b: unit not given here
Method: The AFM-SCFS analysis procedure was performed using the JPK CellHesion unit as previously described, and closely followed our previously reported protocol for APCs[4]. […] The glass disks were quickly transferred to an AFM adapter with immediate addition of 1 ml of fresh medium (DMEM: 10% FBS and 1% penicillin–streptomycin). […] The raw data were normalized to the background readings. Blank readings for each set of affinity measurements (Vγ9Vδ2 T cells touching the glass surface) were collected immediately before each assay to perform background subtraction. All data were analysed using the JPK image processing software. […] The following steps were the same as described above.

[1] = tested on: BTN2A−/− MIA PaCa-2 (BTN2A1/BTN2A2 KO) cells; assay: Cell killing assay with BTN2A−/− MIA PaCa-2 (BTN2A1/BTN2A2 KO) cells expressing BTN2A1/BTN2A2 variants; conditions: for cell killing, Means, Fig. 6e: N 4; for cell killing, single replicate, Fig. 6e: listed as HMBPP
[2] = 2A1-KO cells + HMBPP, 31 values
[3] = 2A1ΔB30.2 cells + HMBPP, 39 values
[4] = 0.1 μM, cells expressing 2A1 (full)
[5] = 0.1 μM, cells expressing 2A2 B30.2 W374R/M506T (with 2A1 other segments)
[6] = 0.1 μM, cells expressing 2A2 W374R/M506T (with 2A1 EC)
[7] = 0.1 μM, cells expressing 2A2 W374R/M506T (wtih 2A1 JM)
[8] = 0.1 μM, cells expressing 2A2 W374R/M506T
[9] = 1 μM, cells expressing 2A1 (full)
[10] = 1 μM, cells expressing 2A2 B30.2 W374R/M506T (with 2A1 other segments)
[11] = 1 μM, cells expressing 2A2 W374R/M506T (with 2A1 EC)
[12] = 1 μM, cells expressing 2A2 W374R/M506T (wtih 2A1 JM)
[13] = 1 μM, cells expressing 2A2 W374R/M506T
[14] = 10 μM, cells expressing 2A1 (full)
[15] = 10 μM, cells expressing 2A2 B30.2 W374R/M506T (with 2A1 other segments)
[16] = 10 μM, cells expressing 2A2 W374R/M506T (with 2A1 EC)
[17] = 10 μM, cells expressing 2A2 W374R/M506T (wtih 2A1 JM)
[18] = 10 μM, cells expressing 2A2 W374R/M506T
[19] = 2A1 WT, source data Ext. Fig. 3c
[20] = 2A1 ∆C, source data Ext. Fig. 3c
[21] = Ext. Fig. 6d, cells expressing 2A1 WT, three-parameter fit

C/C(=C\COP(=O)(O)OP(=O)(O)O)CO [Compound 1, (E)-4-hydroxy-3-methylbut-2-en-1-yl diphosphate]
Binding of VpBTN2 mutants (R475A, T508M and V509A) to VpBTN3 in the presence of HMBPP (VpBTN2 BFI–VpBTN3 BFI): abolished its binding | binding force, Mean, Fig. 6b (MIA PaCa-2 cells; [2]): 767.7 | binding force, Median, Fig. 6b (MIA PaCa-2 cells; [2]): 745 | binding force, Mean, Fig. 6b (MIA PaCa-2 cells; 2A1 cells + HMBPP, 31 values): 1509 | binding force, Median, Fig. 6b (MIA PaCa-2 cells; 2A1 cells + HMBPP, 31 values): 1510 | binding force, Mean, Fig. 6b (MIA PaCa-2 cells; [3]): 594.3 | binding force, Median, Fig. 6b (MIA PaCa-2 cells; [3]): 585 | Binding force between a Vγ9Vδ2 T cell and a MIA PaCa-2 cell (MIA PaCa-2 cells; after HMBPP treatment (1 µM, 4 h), untreated 558 pN): 1,554 pN | cell killing, Means, Fig. 6e ([1]; 0.1 μM, NT cells): 15.31 | cell killing, single replicate, Fig. 6e ([1]; 0.1 μM, NT cells): 16.9534 and 12.1556 and 17.488 and 14.6256 | cell killing, Means, Fig. 6e [1, 4]: 43.2 | cell killing, single replicate, Fig. 6e [1, 4]: 41.0547 and 41.9242 and 44.3091 and 45.5217 | cell killing, Means, Fig. 6e [1, 5]: 37.63 | cell killing, single replicate, Fig. 6e [1, 5]: 30.7526 and 48.9339 and 41.228 and 29.5964 | cell killing, Means, Fig. 6e [1, 6]: 10.65 | cell killing, single replicate, Fig. 6e [1, 6]: 10.0494 and 11.5088 and 9.171 and 11.8833 | cell killing, Means, Fig. 6e [1, 7]: 21.79 | cell killing, single replicate, Fig. 6e [1, 7]: 18.9096 and 21.2355 and 31.0049 and 16.0148 | cell killing, Means, Fig. 6e [1, 8]: 6.989 | cell killing, single replicate, Fig. 6e [1, 8]: 8.189 and 6.668 and 2.002 and 11.0964 | cell killing, Means, Fig. 6e ([1]; 1 μM, NT cells): 19.83 | cell killing, single replicate, Fig. 6e ([1]; 1 μM, NT cells): 17.72 and 22.5709 and 17.5879 and 21.4385 | cell killing, Means, Fig. 6e [1, 9]: 47.49 | cell killing, single replicate, Fig. 6e [1, 9]: 44.8999 and 44.0198 and 51.2118 and 49.8148 | cell killing, Means, Fig. 6e [1, 10]: 47.88 | cell killing, single replicate, Fig. 6e [1, 10]: 42.711 and 50.2729 and 52.3554 and 46.1815 | cell killing, Means, Fig. 6e [1, 11]: 18.17 | cell killing, single replicate, Fig. 6e [1, 11]: 13.1292 and 15.284 and 20.3978 and 23.864 | cell killing, Means, Fig. 6e [1, 12]: 29.03 | cell killing, single replicate, Fig. 6e [1, 12]: 27.7855 and 29.0017 and 26.4668 and 32.8608 | cell killing, Means, Fig. 6e [1, 13]: 15.67 | cell killing, single replicate, Fig. 6e [1, 13]: 11.4295 and 17.9078 and 14.2342 and 19.1099 | cell killing, Means, Fig. 6e ([1]; 10 μM, NT cells): 24.11 | cell killing, single replicate, Fig. 6e ([1]; 10 μM, NT cells): 29.5378 and 18.9356 and 23.5884 and 24.3846 | cell killing, Means, Fig. 6e [1, 14]: 46.91 | cell killing, single replicate, Fig. 6e [1, 14]: 43.2704 and 47.0695 and 47.7293 and 49.5621 | cell killing, Means, Fig. 6e [1, 15]: 46.58 | cell killing, single replicate, Fig. 6e [1, 15]: 39.3517 and 47.3098 and 45.3387 and 54.323 | cell killing, Means, Fig. 6e [1, 16]: 29.48 | cell killing, single replicate, Fig. 6e [1, 16]: 34.2513 and 25.8478 and 33.2665 and 24.5352 | cell killing, Means, Fig. 6e [1, 17]: 29.83 | cell killing, single replicate, Fig. 6e [1, 17]: 29.1476 and 34.1243 and 24.0842 and 31.9573 | cell killing, Means, Fig. 6e [1, 18]: 28.16 | cell killing, single replicate, Fig. 6e [1, 18]: 27.8321 and 21.0649 and 28.437 and 35.311 | Bottom, best-fit value, log(agonist) vs. response (three parameters) [1, 19]: 30.67 | LogEC50, best-fit value [1, 19]: -7.891 | Span (best-fit value) [1, 19]: 32.29 | Top, best-fit value, log(agonist) vs. response (three parameters) [1, 19]: 62.96 | Bottom, best-fit value, log(agonist) vs. response (three parameters) [1, 20]: 18.53 | LogEC50, best-fit value [1, 20]: -4.358 | Span (best-fit value) [1, 20]: 32.38 | Top, best-fit value, log(agonist) vs. response (three parameters) [1, 20]: 50.91 | Bottom (best-fit value) [1, 21]: 37.79 | Span (best-fit value) [1, 21]: 24.09 | Top (best-fit value) [1, 21]: 61.87 | Bottom (best-fit value) ([1]; Ext. Fig. 6d, cells expressing 2A2 G352Y354QR/M506T/W374R, three-parameter fit): 32.14
